38 compounds from patent US10550105B2 (Ribon Therapeutics Inc., priority 2018, dated 2020) can be followed below.

Bounds are passed on as bounds.

PARP7, sequence (Q7Z3E1 whole entry): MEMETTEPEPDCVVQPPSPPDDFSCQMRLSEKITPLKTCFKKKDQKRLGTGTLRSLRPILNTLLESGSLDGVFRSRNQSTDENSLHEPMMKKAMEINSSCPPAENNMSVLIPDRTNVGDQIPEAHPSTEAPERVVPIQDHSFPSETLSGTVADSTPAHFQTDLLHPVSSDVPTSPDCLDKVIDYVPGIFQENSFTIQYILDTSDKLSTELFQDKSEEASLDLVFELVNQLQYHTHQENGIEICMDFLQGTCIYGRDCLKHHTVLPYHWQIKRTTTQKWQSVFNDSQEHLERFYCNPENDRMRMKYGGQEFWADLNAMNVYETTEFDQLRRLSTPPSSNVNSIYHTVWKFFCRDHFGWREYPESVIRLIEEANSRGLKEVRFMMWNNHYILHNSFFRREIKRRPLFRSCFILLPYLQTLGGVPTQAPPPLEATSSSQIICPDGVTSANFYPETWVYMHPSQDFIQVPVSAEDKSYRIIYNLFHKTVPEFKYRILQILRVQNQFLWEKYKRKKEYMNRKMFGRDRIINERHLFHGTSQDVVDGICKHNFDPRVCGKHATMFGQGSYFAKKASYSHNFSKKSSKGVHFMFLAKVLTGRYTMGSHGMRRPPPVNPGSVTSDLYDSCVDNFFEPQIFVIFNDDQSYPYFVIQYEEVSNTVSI

The target in this experiment is PARP7 (Homo sapiens (Human), UniProt Q7Z3E1). The experiment is described as follows: Enzymatic assay for inhibition of PARP7: TR-FRET displacement of biotinylated Probe A from the TIPARP active site. The format is binding. The note with it: Table A-1. The method, boiled down:
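Displacement of biotinylated Probe A from TIPARP was measured as the 665/615 nm time-resolved FRET ratio (excitation 320 nm, 90 μs delay) after a further 30 min at 25 °C. Inhibition across compound concentrations was fitted by dose-response regression, with the Hill slope free or fixed at 1 (3-parameter fit).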
(In general: In TR-FRET formats the signal depends on donor and acceptor labels being close together.)
As for `N#Cc1ccc(N2CCN(C(=O)C[C@H]3CC[C@H](COc4cn[nH]c(=O)c4Cl)O3)CC2)nc1` (single isomer, unassigned) [Example 582 Isomer B], the IC50 (commonly the concentration that inhibits the measured activity by half) lay in the range of 100 to 1000 nM.
In the case of `N#Cc1ccc(N2CCN(C(=O)C[C@@H]3CCC[C@@H](COc4cn[nH]c(=O)c4C(F)(F)F)O3)CC2)nc1` (single isomer, unassigned) [Example 583 Isomer A], the IC50 is under 100 nM.
As to `N#Cc1ccc(N2CCN(C(=O)C[C@H]3CCC[C@H](COc4cn[nH]c(=O)c4C(F)(F)F)O3)CC2)nc1` (single isomer, unassigned) [Example 583 Isomer B], the half-maximal inhibitory concentration (IC50) is at least 1000 nM.
In turn, `CC[C@@H](COCCC(=O)N1CCN(c2ncc(Cl)cn2)CC1)Oc1cn[nH]c(=O)c1C(F)(F)F` (single isomer, unassigned) [Example 591 Isomer A] displayed an IC50 of under 100 nM.
Next, `N#Cc1ccc(N2CCN(C(=O)C[C@H]3CC[C@@H]([C@H]4c5ccccc5CN4c4cn[nH]c(=O)c4C(F)(F)F)O3)CC2)nc1` (single isomer, unassigned) [Example 612 Isomer A]: under 100 nM.
Next, `N#Cc1ccc(N2CCN(C(=O)C[C@H]3CC[C@@H]([C@@H]4c5ccccc5CN4c4cn[nH]c(=O)c4C(F)(F)F)O3)CC2)nc1` (single isomer, unassigned) [Example 612 Isomer B]: under 100 nM.
For `N#Cc1ccc(N2CCN(C(=O)C[C@H]3CC[C@H]([C@@H]4c5ccccc5CN4c4cn[nH]c(=O)c4C(F)(F)F)O3)CC2)nc1` (single isomer, unassigned) [Example 612 Isomer C], the IC50 is at least 1000 nM.
The compound `N#Cc1ccc(N2CCN(C(=O)C[C@@H]3CC[C@@H]([C@H]4c5ccccc5CN4c4cn[nH]c(=O)c4C(F)(F)F)O3)CC2)nc1` (single isomer, unassigned) [Example 612 Isomer D] had a 50% inhibitory concentration (IC50) of at least 1000 nM.
Compound `O=C(CCOC[C@@H](Nc1cn[nH]c(=O)c1C(F)(F)F)[C@@H]1CCOC1)N1CCN(c2ncc(C(F)(F)F)cn2)CC1` (single isomer, unassigned) [Example 614 Isomer A] showed an IC50 of at least 1000 nM.
`O=C(CCOC[C@H](Nc1cn[nH]c(=O)c1C(F)(F)F)[C@H]1CCOC1)N1CCN(c2ncc(C(F)(F)F)cn2)CC1` (single isomer, unassigned) [Example 614 Isomer B] yielded an IC50 of under 100 nM.
As to `C[C@@H](COC[C@H](N)CC(=O)N1CCN(c2ncc(C(F)(F)F)cn2)CC1)Nc1cn[nH]c(=O)c1C(F)(F)F` (single isomer, unassigned) [Example 617 Isomer A], the IC50 is under 100 nM.
With `C[C@@H](COC[C@@H](N)CC(=O)N1CCN(c2ncc(C(F)(F)F)cn2)CC1)Nc1cn[nH]c(=O)c1C(F)(F)F` (single isomer, unassigned) [Example 617 Isomer B], the IC50 is under 100 nM.
Next, `C[C@@H](COCCC(=O)N1CCN(c2ncc(C(F)(F)F)cn2)C[C@@H]1C)Nc1cn[nH]c(=O)c1C(F)(F)F` (single isomer, unassigned) [Example 619 Isomer A]: under 100 nM; `C[C@@H]1CN(c2ncc(C(F)(F)F)cn2)CCN1C(=O)CCOC[C@H](C)Nc1cn[nH]c(=O)c1C(F)(F)F` (single isomer, unassigned) [Example 619 Isomer B]: under 100 nM; `COC[C@H](COCCC(=O)N1CCN(c2ncc(C(F)(F)F)cn2)CC1)Sc1cn[nH]c(=O)c1C(F)(F)F` (single isomer, unassigned) [Example 692]: 100 to 1000 nM.
In turn, `N#Cc1ccc(N2CCN(C(=O)C/C=C\OC[C@@H]3c4ccccc4CN3c3cn[nH]c(=O)c3C(F)(F)F)CC2)nc1` (single isomer, unassigned; isomer a) [Example 79 Isomer A] displayed an IC50 of under 100 nM.
Next, `O=C(COC[C@@H]1CCCN1c1cn[nH]c(=O)c1C(F)(F)F)N[C@H]1CC[C@H](Nc2ccccn2)CC1` (single isomer, unassigned; isomer a) [Example 80 Isomer A]: 100 to 1000 nM.
For the compound `O=C(CCOC[C@@H]1CCCN1c1cn[nH]c(=O)c1C(F)(F)F)NC1CCC(Nc2ccccn2)CC1` (single isomer, unassigned; isomer a) [Example 81 Isomer A], the IC50 is 100 to 1000 nM.
Turning to `N#Cc1ccc(N2CCN(C(=O)[C@H]3CC[C@H](OC[C@@H]4CCCN4c4cn[nH]c(=O)c4C(F)(F)F)CC3)CC2)nc1` (single isomer, unassigned; isomer a) [Example 82 Isomer A], the IC50 was under 100 nM.
Compound `N#Cc1ccc(N2CCN(C(=O)C3CC(OC[C@@H]4CCCN4c4cn[nH]c(=O)c4C(F)(F)F)C3)CC2)nc1` (single isomer, unassigned; isomer a) [Example 95 Isomer A] registered an IC50 of under 100 nM.
`N#Cc1ccc(N2CCN(C(=O)C/C=C\OC[C@H]3c4ccccc4CN3c3cn[nH]c(=O)c3C(F)(F)F)CC2)nc1` (single isomer, unassigned; isomer b) [Example 79 Isomer B] registered a half-maximal inhibitory concentration (IC50) of under 100 nM.
`O=C(COC[C@@H]1CCCN1c1cn[nH]c(=O)c1C(F)(F)F)NC1CCC(Nc2ccccn2)CC1` (single isomer, unassigned; isomer b) [Example 80 Isomer B] showed an IC50 of 100 to 1000 nM.
Next, `O=C(CCOC[C@@H]1CCCN1c1cn[nH]c(=O)c1C(F)(F)F)N[C@H]1CC[C@@H](Nc2ccccn2)CC1` (single isomer, unassigned; isomer b) [Example 81 Isomer B]: at least 1000 nM.
`N#Cc1ccc(N2CCN(C(=O)[C@H]3CC[C@@H](OC[C@@H]4CCCN4c4cn[nH]c(=O)c4C(F)(F)F)CC3)CC2)nc1` (single isomer, unassigned; isomer b) [Example 82 Isomer B] showed an IC50 of 100 to 1000 nM.
Consider `O=C(CCOC[C@@H](Nc1cn[nH]c(=O)c1C(F)(F)F)[C@H]1CCOC1)N1CCN(c2ncc(C(F)(F)F)cn2)CC1` (single isomer, unassigned; isomer c) [Example 614 Isomer C], for which the concentration for half-maximal inhibition (IC50) was under 100 nM.
In turn, `N#Cc1ccc(N2CC3CN(C(=O)CCOC[C@@H]4CCCN4c4cn[nH]c(=O)c4C(F)(F)F)CC3C2)nc1` (stereo in doubt) [Example 113, (S)-6-[5-(3-[[1-[6-oxo-5-(trifluoromethyl)-1,6-dihydropyridazin-4-yl]pyrrolidin-2-yl]methoxy]propanoyl)-octahydropyrrolo[3,4-c]pyrrol-2-yl]pyridine-3-carbonitrile] gave an IC50 of under 100 nM.
Next, `CC(=O)N1CCC(Oc2cc3c(cc2F)CN(c2cn[nH]c(=O)c2C(F)(F)F)C3)CC1` [Example 1, 5-[5-[(1-acetylpiperidin-4-yl)oxy]-6-fluoro-2,3-dihydro-1 H-isoindol-2-yl]-4-(trifluoromethyl)-2,3-dihydropyridazin-3-one]: under 100 nM; `CC(=O)N1CCC(Oc2ccc(F)c3c2CN(c2cn[nH]c(=O)c2C(F)(F)F)C3)CC1` [Example 2, 5-[4-[(1-acetylpiperidin-4-yl)oxy]-7-fluoro-2,3-dihydro-1H-isoindol-2-yl]-4-(trifluoromethyl)-2,3-dihydropyridazin-3-one]: under 100 nM; `O=c1[nH]ncc(N2Cc3cc(OC4CCNCC4)cc(F)c3C2)c1C(F)(F)F` [Example 3, 5-[4-fluoro-6-(piperidin-4-yloxy)-2,3-dihydro-1H-isoindol-2-yl]-4-(trifluoromethyl)-2,3-dihydropyridazin-3-one; formic acid]: under 100 nM.
In the case of `CC(=O)N1CCC(Oc2cc(F)c3c(c2)CN(c2cn[nH]c(=O)c2C(F)(F)F)C3)CC1` [Example 4, 5-[6-[(1-acetylpiperidin-4-yl)oxy]-4-fluoro-2,3-dihydro-1H-isoindol-2-yl]-4-(trifluoromethyl)-2,3-dihydropyridazin-3-one], the IC50 is under 100 nM.
In turn, `CC(=O)N1CCC(Oc2cc3c(cc2F)CN(c2cn[nH]c(=O)c2C(F)(F)F)C3C)CC1` (centres unmarked) [Example 5, 5-[6-[(1-acetylpiperidin-4-yl)oxy]-5-fluoro-1-methyl-2,3-dihydro-1H-isoindol-2-yl]-4-(trifluoromethyl)-2,3-dihydropyridazin-3-one] had an IC50 of 100 to 1000 nM.
Next, `CN1CCC(Oc2ccc3c(n2)CN(c2cn[nH]c(=O)c2C(F)(F)F)C3)CC1` [Example 6, 5-[2-[(1-methylpiperidin-4-yl)oxy]-5H,6H,7H-pyrrolo[3,4-b]pyridin-6-yl]-4-(trifluoromethyl)-2,3-dihydropyridazin-3-one]: 100 to 1000 nM; `O=c1[nH]ncc(N2Cc3cc(OC4CCNCC4)cnc3C2)c1C(F)(F)F` [Example 7, 5-[3-(piperidin-4-yloxy)-5H,6H,7H-pyrrolo[3,4-b]pyridin-6-yl]-4-(trifluoromethyl)-2,3-dihydropyridazin-3-one]: 100 to 1000 nM; `CC(=O)N1CCC(Oc2cnc3c(c2)CN(c2cn[nH]c(=O)c2C(F)(F)F)C3)CC1` [Example 8, 5-[3-[(1-acetylpiperidin-4-yl)oxy]-5H,6H,7H-pyrrolo[3,4-b]pyridin-6-yl]-4-(trifluoro-methyl)-2,3-dihydropyridazin-3-one]: 100 to 1000 nM.
`O=c1[nH]ncc(N2Cc3nccc(OC4CCNCC4)c3C2)c1C(F)(F)F` [Example 9, 5-[4-(piperidin-4-yloxy)-5H,6H,7H-pyrrolo[3,4-b]pyridin-6-yl]-4-(trifluoromethyl)-2,3-dihydropyridazin-3-one] came in with an IC50 of 100 to 1000 nM.
Compound `O=c1[nH]ncc(N2Cc3nccc(OCCN4CCOCC4)c3C2)c1C(F)(F)F` [Example 10, 5-[4-[2-(morpholin-4-yl)ethoxy]-5H,6H,7H-pyrrolo[3,4-b]pyridin-6-yl]-4-(trifluoromethyl)-2,3-dihydropyridazin-3-one] yielded an IC50 of 100 to 1000 nM.
Next, `COc1cc2c(cn1)CN(c1cn[nH]c(=O)c1C(F)(F)F)C2` [Example 11, 5-[6-methoxy-1H,2H,3H-pyrrolo[3,4-c]pyridin-2-yl]-4-(trifluoromethyl)-2,3-dihydropyridazin-3-one]: under 100 nM; `O=c1[nH]ncc(N2Cc3cnc(OC4CCNCC4)cc3C2)c1C(F)(F)F` [Example 12, 5-[6-(piperidin-4-yloxy)-1H,2H,3H-pyrrolo[3,4-c]pyridin-2-yl]-4-(trifluoromethyl)-2,3-dihydropyridazin-3-one]: 100 to 1000 nM.
